In PMC8662641, “Site-Specific Labeling of Endogenous Proteins Using CoLDR Chemistry” (Journal of the American Chemical Society, 2021):
Several values for one entry are separate records, joined by “and”; a condition that tells them apart may be missing. Identical values can stand only once.

Legend:
[1] = molecular target: T1, BTK-1h (Homo sapiens, UniProt Q06187); assay: High-throughput screening with 1h-labeled BTK; format: binding
T1 construct: The BTK kinase domain was diluted to 2 μM in the buffer, and 2 μM 1h was added; made in house
Procedure: The collection was composed of BTK binding compounds obtained in our previous luminescence screen[37] (Data set S2). […] The resulting BTK-1h (50 μL) was added to the inhibitors.

[2] = molecular target: BTK (Homo sapiens, UniProt Q06187); parameters: BTK kinase domain was expressed and purified as previously reported; made in house; method as in Reddi et al., J. Am. Chem. Soc. 2021, 143 (13), 4979–4992; conditions: ref Reddi et al., J. Am. Chem. Soc. 2021, 143 (13), 4979–4992; cited from earlier work
[3] = Dataset S2A, 200 μM compound, BTK-1h, 32 °C, 10 min

T1 sequence (Q06187 402-655): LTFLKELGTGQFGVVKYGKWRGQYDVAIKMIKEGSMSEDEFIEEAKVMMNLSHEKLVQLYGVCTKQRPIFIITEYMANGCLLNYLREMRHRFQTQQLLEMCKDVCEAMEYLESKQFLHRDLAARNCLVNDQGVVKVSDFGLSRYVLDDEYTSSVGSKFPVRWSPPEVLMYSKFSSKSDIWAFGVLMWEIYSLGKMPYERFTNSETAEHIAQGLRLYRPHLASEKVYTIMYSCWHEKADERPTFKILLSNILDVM
BTK, sequence (Q06187 402-655 limits assumed): as the sequence (Q06187 402-655) above

| FI (650)/FI (620) [1, 3] | FI (BTK-1h)/FI (BTK-1h+Inhibitor) at 620 nm [1, 3] | FI (650)/FI (620) ([1]; Dataset S2C, BTK-1h with inhibitor) | Compound | BTK Inhibition reported in luminescence assay* [2] |
| --- | --- | --- | --- | --- |
| 1.089 | 1.079 |  | COc1cc2c(Nc3ccc(NC(=O)c4ccccc4)cc3)ncnc2cc1OCCCN1CCOCC1 [PCM-0094881-002] | 77.9 |
| 1.037 | 1.095 |  | NCC(=O)Nc1ccc(-n2nc(C(F)(F)F)cc2-c2ccc3c(ccc4ccccc43)c2)cc1 [PCM-0094886-003] | 70.3 |
| 1.661 | 1.3808 |  | CO[C@@H](C(=O)N1Cc2[nH]nc(NC(=O)c3ccc(N4CCN(C)CC4)cc3)c2C1)c1ccccc1 [PCM-0094888-003] | 85.5 |
| 0.9254 | 1.084 |  | CN(C)C/C=C/C(=O)Nc1cc2c(Nc3ccc(F)c(Cl)c3)ncnc2cc1O[C@H]1CCOC1 [PCM-0094907-003] | 84.8 |
| 1.048 and 1.073 | 1.015 and 1.028 |  | CC(O)C(=O)O.CN1CCN(c2ccc3nc(-c4c(N)c5c(F)cccc5[nH]c4=O)[nH]c3c2)CC1.O [PCM-0094915-004] | 53.8 |
| 1.097 and 1.08 | 1.121 and 1.125 |  | COc1cc2nccc(Oc3ccc(NC(=O)C4(C(=O)Nc5ccc(F)cc5)CC4)cc3)c2cc1OC [PCM-0094920-004] | 123.4 |
| 1.123 | 1.05 |  | COc1cc2nccc(Oc3ccc(NC(=O)Nc4cc(C)on4)c(Cl)c3)c2cc1OC [PCM-0094927-002] | 84.1 |
| 2.2858 | 1.798 | 1.798 | O=C(Nc1c[nH]nc1-c1nc2ccc(CN3CCOCC3)cc2[nH]1)NC1CC1 [PCM-0094942-002, AT9283] | 93.8 |
| 1.167 | 1.045 |  | O=C(Nc1ccc(OC(F)(F)F)cc1)c1sccc1NCc1ccnc2ccccc12 [PCM-0094951-002] | 90.3 |
| 1.066 | 1.085 |  | CS(=O)(=O)O.O=C(Nc1cccc(Cl)c1)Nc1ncc(CCNc2ncnc3ccsc23)s1 [PCM-0094983-002] | 73.1 |
| 1.149 | 1.02 |  | C=CC(=O)Nc1cccc(Oc2nc(Nc3ccc(N4CCN(C)CC4)cc3)ncc2Cl)c1 [PCM-0095023-002] | 91.7 |
| 1.274 | 1.071 |  | Cc1nc(N)sc1-c1ccnc(Nc2ccc(N3CCOCC3)cc2)n1 [PCM-0095025-002] | 57.2 |
| 0.9704 | 1.038 |  | C=CC(=O)Nc1cccc(Oc2nc(Nc3ccc(N4CCN(C)CC4)cc3OC)ncc2Cl)c1 [PCM-0095043-002] | 89 |
| 1.86 | 1.055 |  | O=C(NCCCNc1nc(Nc2cccc(NC(=O)N3CCCC3)c2)ncc1I)c1cccs1 [PCM-0095061-002] | 60 |
| 0.9721 | 1.036 |  | CCOc1cc2ncc(C#N)c(Nc3ccc(F)c(Cl)c3)c2cc1NC(=O)/C=C/CN(C)C [PCM-0095063-002] | 96.6 |
| 1.105 | 1.137 |  | NC(=O)Nc1cc(-c2cccc(F)c2)sc1C(=O)N[C@H]1CCCNC1 [PCM-0095092-003] | 86.9 |
| 1.107 | 1.042 |  | CCCCCCCCCCCCc1ccc(S(=O)(=O)Nc2nncs2)cc1 [PCM-0095111-002] | 53.8 |
